# Experimental data taken from the supplement of paper PMC10307832.
# Legend:
# Assay in all cases: relative viability (nuclei count vs DMSO), 5 days (fraction); higher = more cells survive
# Zebularine + Dasatinib = compound: O=c1ncccn1[C@@H]1O[C@H](CO)[C@@H](O)[C@H]1O [Zebularine] + Cc1nc(Nc2ncc(C(=O)Nc3c(C)cccc3Cl)s2)cc(N2CCN(CCO)CC2)n1 [Dasatinib] (partner 0.075 µM)
# Procedure, shortened: (§1)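 Lung cancer cell lines were pin-tool dosed in 1536-well plates on the day after seeding, with either a lone drug or a fixed anchor-drug dose plus five library-drug doses (not always all listed) in √10 steps. Nuclei were counted on 4× images after 5 days. Relative viability is the ratio of treated-well to vehicle-well nuclei counts, with each value a median of duplicate plates.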
# Zebularine + Luminespib = compound: O=c1ncccn1[C@@H]1O[C@H](CO)[C@@H](O)[C@H]1O [Zebularine] + CCNC(=O)c1noc(-c2cc(C(C)C)c(O)cc2O)c1-c1ccc(CN2CCOCC2)cc1 [Luminespib] (partner 0.01 µM)
# Procedure, shortened: as §1
# BI-D1870 + Decitabine = compound: CC(C)CCN1c2nc(Nc3cc(F)c(O)c(F)c3)ncc2N(C)C(=O)C1C [BI-D1870] + Nc1ncn([C@H]2C[C@H](O)[C@@H](CO)O2)c(=O)n1 [Decitabine] (partner 2 µM)
# Procedure, shortened: as §1
# BI-D1870 + Bortezomib = compound: CC(C)CCN1c2nc(Nc3cc(F)c(O)c(F)c3)ncc2N(C)C(=O)C1C [BI-D1870] + CC(C)C[C@H](NC(=O)[C@H](Cc1ccccc1)NC(=O)c1cnccn1)B(O)O [Bortezomib] (partner 0.002 µM)
# Procedure, shortened: as §1
Cell Line,relative viability (Zebularine + Dasatinib; first compound 1 µM),relative viability (Zebularine + Dasatinib; first compound 3.162 µM),relative viability (Zebularine + Dasatinib; first compound 10 µM),relative viability (Zebularine + Dasatinib; first compound 31.62 µM),relative viability (Zebularine + Dasatinib; first compound 100 µM),relative viability (Zebularine + Luminespib; first compound 1 µM),relative viability (Zebularine + Luminespib; first compound 3.162 µM),relative viability (Zebularine + Luminespib; first compound 10 µM),relative viability (Zebularine + Luminespib; first compound 31.62 µM),relative viability (Zebularine + Luminespib; first compound 100 µM),relative viability (BI-D1870 + Decitabine; first compound 0.04 µM),relative viability (BI-D1870 + Decitabine; first compound 0.1265 µM),relative viability (BI-D1870 + Decitabine; first compound 1.265 µM),relative viability (BI-D1870 + Decitabine; first compound 4 µM),relative viability (BI-D1870 + Bortezomib; first compound 0.04 µM),relative viability (BI-D1870 + Bortezomib; first compound 0.1265 µM),relative viability (BI-D1870 + Bortezomib; first compound 0.4 µM),relative viability (BI-D1870 + Bortezomib; first compound 1.265 µM),relative viability (BI-D1870 + Bortezomib; first compound 4 µM),relative viability (BI-D1870 + Decitabine; first compound 0.4 µM)
NCI-H1623,0.632,0.47,0.459,0.53,0.386,0.629,0.503,0.592,0.468,0.293,,,,,,,,,,
NCI-H1648,,,,,,,,,,,0.463,0.505,0.527,0.578,,,,,,
NCI-H1703,,,,,,,,,,,,,,,0.377,0.315,0.353,0.288,0.21,
NCI-H1793,0.479,0.373,,0.25,0.176,0.196,0.197,,0.203,0.142,0.513,0.439,0.681,0.632,,,,,,0.528
NCI-H1944,0.202,0.199,0.221,0.215,0.193,0.837,0.707,0.718,0.711,0.533,0.435,0.415,0.508,0.432,,,,,,0.388
NCI-H2170,0.658,0.572,0.364,0.559,0.278,1.07,0.942,0.223,0.689,0.272,0.515,0.384,0.445,0.402,,,,,,0.457
NCI-H2228,0.606,0.518,0.322,0.448,0.222,0.198,0.147,0.175,0.226,0.153,,,,,1.36,0.999,1.37,1.05,0.401,
NCI-H2342,0.364,0.337,0.268,0.334,0.341,0.835,0.783,0.621,0.669,0.576,0.714,0.69,0.891,0.795,,,,,,0.793
SK-MES-1,0.386,0.423,0.356,0.299,0.166,0.656,0.755,0.458,0.347,0.251,0.395,0.337,0.395,0.304,,,,,,0.332
SW 900,0.647,0.498,0.328,0.926,0.484,0.187,0.21,0.218,0.162,0.137,0.479,0.47,0.534,0.498,,,,,,0.472
